{"source": "patent US9499570B2", "about": "“Boron containing small molecules” (priority 2010, dated 2016)", "key": {"[1]": {"test_system": "Schistosoma mansoni schistosomula", "assay": "Schistosoma mansoni schistosomula phenotype screen in vitro", "settings": "Second Set, 5 uM, listed as 6-(1-Hydroxy-1,3-dihydro-benzo[c][1,2]oxaborol-5-yloxy)-2-(4-oxo-pentyloxy)-5-ch", "from_the_text": "(§1) Puerto Rican isolates of S. mansoni using Biomphalaria glabrata snails and golden hamsters as intermediate and definitive hosts, respectively, were maintained and handled in the University of California-San Francisco Sandler Center for Tropical Medicine. Patent B. glabrata snails (6-8 weeks after exposure to 5-10 infectious miracidia) were induced to shed infective larvae (cercariae) under light stimulus into the surrounding water. Cercariae were washed in rounds of ice-cold water and concentrated through and over sieves of varying pore sizes. They were then mechanically sheared (separation of heads from tails) as described in Colley D G, et al. Exp Parasitol 1974, 35:44-51, in ice-cold Incomplete Medium 169 (as described in Basch P F. J Parasitol 1981, 67:179-185, minus FBS and antibiotics) by passing 15 times through a double headed 22-gauge syringe needle connected to two 10 mL syringes. The resulting cercarial heads (schistosomula) were separated from their tails by swirling in a petri dish. Concentrated schistosomula were added to a sterile 1.5 mL centrifuge tube and allowed to settle over ice. Schistosomula were transferred to a sterile environment and washed 4 times in Incomplete Medium 169 prior to plating.\n(§2) Two sets of screening were performed. In the first set, compounds were screened against schistosomula and observations were made at 24 hours, 2 days, 3 days, 4 days, and 6 days. In the second set, compounds were screened against schistosomula with observations at 24 hours, 2 days, 3 days, and 4 days and adult worms at 7 hours, 24 hours, 4 days, and 6 days.\nPlates contain 200 schistosomula/well in […] complete Basch medium and were maintained at 37° C. in a 5% CO2 atmosphere. All compounds were tested in duplicate with at least two experimental replicates. Compounds and control compounds were added to the plates using the Biomek FXp using 96-well disposable tips. Final concentration of DMSO in each well was 0.5%.\n(§3) A semi-quantitative and controlled nomenclature for phenotypes that can arise as a result of compound insult to both schistosomula and adults was utilized (Abdulla M H, et al., PLoS Negl Trop Dis 2009, 3:e478). Phenotypes were recorded by visual inspection and on a flexible time basis but at least at 24 h and 4 day time-points in the case of large scale screening. […] To help eliminate bias, two screen analysts scored phenotypes ‘blind’ both to knowledge of the contents of each screening plate and the phenotypes scored by his/her colleague. Upon completing their individual assessments, each analyst's ‘hit sheet’ was then compared to derive a ‘consensus hit sheet’. Discrepancies in analysts' hit sheets were re-evaluated under the microscope to eventually make a consensus hit call.\n(§4) Hyper-coiled and coiled represent a verbal description of the visual phenotype as compared to the DMSO control. The + and ++ and +++ means more of the phenotype which preceded it. The − means less of the phenotype which preceded it. Results"}, "[2]": {"test_system": "Schistosoma mansoni adult worms", "assay": "Schistosoma mansoni adult worm phenotype screen in vitro", "settings": "Second Set, 5 uM", "from_the_text": "as §1, §2\nGiven the delicacy and size (0.5-1.5 cm in length) of this stage all operations were performed manually by the Sandler Center. 24-well plates were set up with compound (final DMSO concentration=0.5%) containing approximately 5 pairs of worms (S. mansoni has separate sexes) in 2 mL complete Basch medium per well. Plates were maintained at 37° C. in a 5% CO2 atmosphere. All compounds were tested in duplicate with at least two experimental replicates.\nas §3, §4"}, "[3]": {"test_system": "Brugia malayi", "assay": "Brugia malayi in vitro assay, adult female worms", "settings": "50 uM", "method": "Adult female worms are shipped from TRS Labs Inc. (Nonglak Supakorndej, Lab Director, 295 Research Dr., Athens, Ga. 30605; 706-549-0764) via Fed Ex. Individual worms are shipped in 2 mls vials with RPMI on Mondays and arrive at the […] Center lab on Tuesday mornings. Individual worms are poured into each well (24-well tissue culture plates) to avoid handling worms since they are very delicate and easily broken. Transport media is removed and replaced with 0.5 mls of RPMI-1640 (25 mM HEPES, 2 g/L NaHCO3, Antibiotic/Antimycotic, 5% HI FBS). Worms are maintained in a 37° C. 5% CO2 incubator. Compounds are added directly to each duplicate well (5 ul of 5 mM for a final concentration of 50 uM). DMSO (5 ul) is used as a negative control and Ivermectin (Sigma) is used as a positive control at 100 uM/well and 20 uM/well. Adult filarial nematodes can shed/give birth to microfilarial worms (mf) during the course of the assay. Wells were reviewed for the presence of mf, and the viability of mf, by visual observation of the well on the last day of observation (Day 7). Plates are examined once a day for 4-7 days. […] If changes are observed, worms are more closely examined under a dissecting microscope."}}, "note": "“Also recorded” adds a separate entry of the source."}
{"smiles": "CC(=O)CCCOc1nc(Oc2ccc3c(c2)COB3O)c(Cl)cc1C#N", "note": "[D231, 5-Chloro-6-(1-hydroxy-1,3-dihydrobenzo[c][1,2]oxaborol-5-yloxy)-2-(4-oxopentyloxy)nicotinonitrile]", "values": [{"measurement": "Schistosomula (juvenile infective form) worm screen phenotype 24 h", "setting": "[1]; 24 h", "result": "R, O++,; also recorded: some deg-m"}, {"measurement": "Schistosomula (juvenile infective form) worm screen phenotype 2 d", "setting": "[1]; 2 d", "result": "O++, and R−, and more and deg-M"}, {"measurement": "Schistosomula (juvenile infective form) worm screen phenotype 3 d", "setting": "[1]; 3 d", "result": "O++, R−,; also recorded: more deg-M"}, {"measurement": "Schistosomula (juvenile infective form) worm screen phenotype 4 d", "setting": "[1]; 4 d", "result": "O++, R−,; also recorded: more deg-M"}, {"measurement": "Adult worm screen phenotype 7 h", "setting": "[2]; 7 h, listed as 6-(1-Hydroxy-1,3-dihydro-benzo[c][1,2]oxaborol-5-yloxy)-2-(4-oxo-pentyloxy)-5-ch", "result": "O+++,; also recorded: Sex sep (Sex sep=worm pairs have separated); also recorded: (violent; also recorded: motion)"}, {"measurement": "Adult worm screen phenotype 24 h", "setting": "[2]; 24 h, listed as 6-(1-Hydroxy-1,3-dihydro-benzo[c][1,2]oxaborol-5-yloxy)-2-(4-oxo-pentyloxy)-5-ch", "result": "O+++, Sex; also recorded: sep (violent; also recorded: motion)"}, {"measurement": "Adult worm screen phenotype 4 d", "setting": "[2]; 4 d, listed as 6-(1-Hydroxy-1,3-dihydro-benzo[c][1,2]oxaborol-5-yloxy)-2-(4-oxo-pentyloxy)-5-ch", "result": "O++, sex; also recorded: sep on sides,; also recorded: males dark"}, {"measurement": "Adult worm screen phenotype 6 d*", "setting": "[2]; 6 d", "result": "Dark, S"}, {"measurement": "Presence and viability of microfilarial worms (mf) Day 7", "setting": "[3]; trial one", "result": "no mf and obs"}, {"measurement": "Worm activity / phenotype Day 1", "setting": "[3]; trial one", "result": "hyper-; also recorded: coiled"}, {"measurement": "Worm activity / phenotype Day 2", "setting": "[3]; trial one", "result": "hyper-; also recorded: coiled"}, {"measurement": "Worm activity / phenotype Day 7", "setting": "[3]; trial one", "result": "0, and coiled"}, {"measurement": "Presence and viability of microfilarial worms (mf) Day 7", "setting": "[3]; trial two", "result": "no mf and obs"}, {"measurement": "Worm activity / phenotype Day 1", "setting": "[3]; trial two", "result": "hyper-; also recorded: coiled"}, {"measurement": "Worm activity / phenotype Day 2", "setting": "[3]; trial two", "result": "hyper-; also recorded: coiled"}, {"measurement": "Worm activity / phenotype Day 7", "setting": "[3]; trial two", "result": "0, and coiled"}]}
